From PMC8372549 (Toxicology and applied pharmacology, 2021)

Key:
Assay type in all cases: biochemical
[1] = target: T1, cytochrome P450 1A1 (Homo sapiens, UniProt P04798); assay: fluorometric O-deethylation by recombinant CYP1A1 bactosomes; settings: cited from earlier work
T1 sequence (P04798 1-512): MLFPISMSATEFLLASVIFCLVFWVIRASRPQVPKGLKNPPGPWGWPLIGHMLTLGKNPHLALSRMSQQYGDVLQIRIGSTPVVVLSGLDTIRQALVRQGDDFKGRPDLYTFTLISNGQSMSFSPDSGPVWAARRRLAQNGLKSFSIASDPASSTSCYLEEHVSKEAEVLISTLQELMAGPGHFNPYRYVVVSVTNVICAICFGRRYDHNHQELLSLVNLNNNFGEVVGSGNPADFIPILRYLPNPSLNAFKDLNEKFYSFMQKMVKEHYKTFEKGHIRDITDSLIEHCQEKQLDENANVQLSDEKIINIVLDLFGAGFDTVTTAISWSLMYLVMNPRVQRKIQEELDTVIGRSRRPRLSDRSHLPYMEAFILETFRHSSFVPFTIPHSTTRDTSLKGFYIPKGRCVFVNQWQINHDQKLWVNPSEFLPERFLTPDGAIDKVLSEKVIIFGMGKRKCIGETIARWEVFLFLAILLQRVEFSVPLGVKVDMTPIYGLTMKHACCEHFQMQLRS

[2] = target: T2, CYP1B1 (Homo sapiens, UniProt Q16678); assay: fluorometric 7-ethoxyresorufin O-deethylation with recombinant CYP1B1 bactosomes
T2 sequence (Q16678 1-543): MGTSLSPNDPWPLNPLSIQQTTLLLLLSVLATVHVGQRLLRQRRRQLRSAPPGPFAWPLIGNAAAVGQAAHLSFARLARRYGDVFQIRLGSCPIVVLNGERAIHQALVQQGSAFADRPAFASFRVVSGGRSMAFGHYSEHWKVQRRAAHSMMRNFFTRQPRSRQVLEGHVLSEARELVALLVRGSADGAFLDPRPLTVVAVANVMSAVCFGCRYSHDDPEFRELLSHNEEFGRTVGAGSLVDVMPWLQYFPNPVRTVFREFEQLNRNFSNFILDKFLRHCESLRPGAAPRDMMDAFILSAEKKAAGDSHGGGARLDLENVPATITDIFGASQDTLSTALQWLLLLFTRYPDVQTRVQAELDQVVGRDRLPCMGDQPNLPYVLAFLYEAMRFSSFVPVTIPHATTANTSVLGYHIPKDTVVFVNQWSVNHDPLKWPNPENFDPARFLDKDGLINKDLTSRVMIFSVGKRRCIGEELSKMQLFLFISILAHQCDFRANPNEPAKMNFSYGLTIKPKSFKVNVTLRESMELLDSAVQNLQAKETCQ

[3] = target: T1, cytochrome P450 1A1; assay: fluorometric CEC O-deethylation with recombinant CYP1A1 bactosomes

IC50 [2] [µM] | Ki [3] [µM] | Compound | Km [1] [µM]
– | – | CCOc1ccc2cc(C#N)c(=O)oc2c1 [CEC, 3-cyano-7-ethoxycoumarin] | 0.5
1.7 ± 0.3 | 4.55 ± 0.37 | c1ccc(CSSSCc2ccccc2)cc1 [DTS, dibenzyl trisulfide] | –
